From PMC8047729, “Identification of a nanomolar affinity α-synuclein fibril imaging probe by ultra-high throughput in silico screening” (Chemical Science, 2020)
“Also recorded” adds a separate entry of the source.

Experiments:
[1] = target: αS fibrils in mouse brain lysate (Homo sapiens, UniProt P37840); test: Photo-crosslinking and click labeling in mouse brain lysate; format: binding; conditions: 50 μM CLX2, 50 μM αS fibrils, 10 mg/ml lysate
Description: Photo-crosslinking in Mouse Brain Lysate
Total Mouse Brain Protein Preparation. Mice were anesthetized using isoflurane gas in a closed chamber (AKORN, Lake Forest, IL, USA) followed by cervical dislocation. Brains were quickly dissected and snap-frozen in dry ice. Mouse brains were mechanically homogenized in five -fold excess (w/w) RIPA buffer (Thermo Fisher Scientific; Waltham, MA, USA ) using a ground glass tissue plunger. Homogenized sample was then subjected to probe sonication (Qsonica, Newtown, CT, USA) on ice using a microtip, at an amplitude of 50% at intervals of 10 s on 20 s off, for a total process-time (on-time) of 5 minutes. Crude lysate was then clarified by centrifugation at 10,000xg at 4 °C for 60 min. […] The lysate total protein concentration was then determined using the Bio-Rad detergent compatible (DC) protein assay […]
samples (50 µM final concentration), followed by “click -mix” (50 µM copper sulfate, 100 µM THPTA final concentration), sodium ascorbate (200 µM final concentration), and PBS to achieve a final volume of 200 µL. […] Samples were then analyzed via SDS-PAGE using a 4-12% Bis-Tris pre-cast gel (NuPAGE, Thermo Fisher Scientific). αS monomer labeled with BODIPY-FL maleimide (prepared as previously described13) was used as a control. […]

αS fibrils [2] = target: T1, αS fibrils (Homo sapiens, UniProt P37840); test: Photo-crosslinking assay with MALDI-MS of tryptic digest; format: binding; conditions: 100 μM crosslinker, 365 nm irradiation, trypsin digest MALDI-MS
Method: Photo-crosslinking assay. Aggregations of αS prepared as described above were transferred to a clear glass vial to assist in photo -crosslinking, and compounds ClX1, ClX2, or DMSO (as a vehicle control) were delivered to their respective vials (100 μM final concentrations). The resulting fibril-crosslinker or fibril-DMSO mixture was incubated for 1 h at 37 °C, and thereafter irradiated with long wave UV from a TLC lamp (365 nm) for 1 h. The irradiated fibrils were then boiled in SDS (25 mM final concentration), and subjected to CHCl3/MeOH precipitation to remove excess detergent and buffer as previously described.2 The translucent brown protein pellet was then resuspended in 40 μL of sterilized, Milli-Q water. At this point, the whole protein sample was subjected to MALDI-MS analuysis by spotting 1 μL of sample in 1μL of sinapic acid matrix, prepared as a saturated solution in a 50:50 mixture of ACN:H2O with 0.1% TFA. The remaining sample was digested using trypsin (Promega Corporation) at 37 °C overnight (50 mM NH4CO3, 1 mM CaCl2, 1:50-1:100 protein:trypsin ratio). The resulting tryptic peptide mixture was diluted 1:10 in sterile water with 0.1% TFA, and analyzed via MALDI-MS by spotting 1 μL of sample in 1 μL of CHCA matrix or DHB matrix, prepared as saturated solutions in a 50:50 mixture of ACN:H2O with 0.1% TFA. […]

[3] = target: αS fibrils, Site 9 ([^3H]BF2846) (Homo sapiens, UniProt P37840); test: Competition binding assay with Site 9 radioligand [^3H]BF2846 on αS fibrils; conditions: αS fibrils 50 nM, [^3H]BF2846 3 nM, 1 h 37 °C; 95% confidence intervals in parentheses (n = 3)
Method: (§1) Fig. S10 Screening of SAR Library Derived from Compound 6. Site 2 radioligand competition binding assays with [3H]Tg-190b. ANOVA was performed with Dunnett’s multiple comparisons test, where […]
(§2) *P<0.0332, **P<0.0021, ***P<0.0002 and ****P<0.0001.
(§3) Competition binding assay. αS fibrils (100 nM for Site 2 and 50 nM for Site 9) were mixed with Site 2 ligand [3H]Tg-190b (6 nM) or Site 9 ligand [3H]BF2846 (3 nM) and varying concentrations of unlabeled compounds 2, 6, 24, 28, 31, 39, 40, or 52. Compounds were diluted in 50 mM Tris-HCl buffer (pH 7.4) and mixed with fibrils and radioligand in a total volume of 150 µL. Total binding was measured in the absence of competitor and nonspecific binding was determined in reactions containing unlabeled Tg-190b (1 µM) or BF2846 (0.5 µM). In a duplicate set of binding […]
(§4) binding to the filter paper. Reactions were incubated at 37 °C for 1 h. After incubation, bound […]
(§5) Filters containing the bound ligand were mixed with 3 mL of scintillation cocktail (MicroScint-20, PerkinElmer) and counted after 12 h of incubation on a MicroBeta System (PerkinElmer). All data points were acquired in triplicate.
(§6) (1 picture or pasted object on this page, not shown here)
(§7) The measured cpm values were converted to % specific binding as described by the equation […]
(§8) % specific binding = !"#$"#% "# ’() *+),)#-) ./ -.0*)’"’.+1#.#,*)-"/"- !"#$"#% ∗ 100 ’.’23 !"#$"#%1#.#,*)-"/"- !"#$"#%
(§9) IC50 values were calculated by fitting the data to Equation S1 below by non-linear regression, using GraphPad Prism software:
(§10) Y = Bottom + (Top-Bottom) / (1+ 10(813.%9:;<)) (S1) where logIC50 is the log of the concentration of competitor that results in binding half-way between Bottom and Top; Top and Bottom are plateaus in the units of Y axis; they are binding observed in the absence of competitor and in the presence of a maximal concentration of competitor, respectively. Binding curves for compounds 2 and 6 are shown in Fig. 2 in the main text and for compounds 6, 24, 28, 31, 39, 40, and 52 in Figs. S11 and S12.

αS aggregation = αS aggregation (Homo sapiens, UniProt P37840); test: αS aggregation fluorescence polarization experiment; format: biochemical; conditions: 10 and 100 μM compound, 100 μM αS monomer with 1% labeled αS
Method: (§11) Fluorescence Polarization and Photo -Crosslinking Assays
(§12) Aggregation and disaggregation fluorescence polarization experiments. Wild-type and αS with a fluorescein maleimide attached via Cys114 mutation were produced as previously described.10 Aggregations were performed at a total monomer concentration of 100 μM with 1% labeled αS in 20 mM Tris, 100 NaCl pH 7.4 in the presence of 10 and 100 μM compound 6 and with equivalent volume of DMSO as a control. At each timepoint, an aliquot of the fibrilization reaction was removed and diluted 10-fold in buffer. Fluorescence polarization (FP) was measured in a Greiner black 96 half-area well microplate (Greiner Bio-One North America Inc.; Monroe, NC, USA) at a total volume of 50 μL on a Tecan F200 plate reader (San Jose, CA, USA).
Aggregations were performed in triplicate. […]
Fig. S4 Impact of Compound 6 on αS Aggregation. Aggregation of αS in the presence of 1% labeled monomer along with (light-green) 10 and (dark-green) 100 μM compound 6 monitored by (a) fluorescence polarization (FP) and (b) Congo Red absorbance. Aggregation in the presence of compound was compared to aggregation in the presence of volume matched addition of DMSO for (grey) 10 and (black) 100 μM […]
10 and (black) 100 μM compound administration was used as a negative control. […]

αS fibrils [4] = target: T1, αS fibrils; test: αS fibril disaggregation (stability) fluorescence polarization experiment; format: biochemical; conditions: 10 μM labeled fibrils; compound 6 at 10 and 100 μM, EGCG and NDGA at 100 μM
Method: as §11, §12
Aggregations were performed in triplicate.
Disaggregation experiments were performed on labeled fibril samples prepared as described above in the absence of compound. A final concentration of 10 μM fibrils was added to each well for each disaggregation experiment and compound 6, nordihydroguaiaretic acid (NDGA), epigallocatechin gallate (EGCG) or DMSO (1%) was added just prior to measurement to the final concentrations detailed in Fig. S3 and total volumes of 50 μL. Samples were shaken at 149 rpm at room temperature with FP measurements taken every 150 s. EGCG and NDGA […]
Fig. S5 Impact of Compound 6 on αS Fibril Stability. Assessment of potential remodeling of 1% labeled αS fibrils by (light-green) 10 and (dark-green) 100 μM compound 6 compared to (red) 100 μM EGCG and (blue) 100 μM NDGA as a positive control. DMSO administration volume-matched to that used for (grey) 10 and (black) 100 μM compound administration was used as a negative control. […]

[5] = target: T2, αS fibrils, Site 2 ([^3H]Tg-190b) (Homo sapiens, UniProt P37840); test: Single-concentration radioligand competition screen (100 nM compound) against [^3H]Tg-190b; format: binding; conditions: 100 nM αS fibrils, [^3H]Tg-190b 6 nM
Method: Compounds 1–17 were purchased from vendors that were listed on the ZINC15 compound library. […] Total binding was measured in the absence of competitor and nonspecific binding was determined in reactions containing unlabeled Tg-190b (1 μM) or BF2846 (0.5 μM). […] Filters containing the bound ligand were mixed with 3 mL of scintillation cocktail (MicroScint-20, PerkinElmer, Inc.) and counted after 12 h of incubation on a MicroBeta System (PerkinElmer, Inc.). All data points were measured in triplicate. Screening of compounds 18–56 for the SAR study was performed in a similar fashion.
In Vitro Radioligand Binding Assays
Screening compound library. Compounds 1-17 (Fig. S8) were purchased from vendors that were listed on the ZINC15 compound library. 3 Compounds were screened for αS binding and after identifying the lead compound, 6, the core structure of compound 6 and its pyrazole or oxadiazole derivatives were used for similarity search on the Mcule, Inc. website.12 The similarity threshold was set to higher than 0.8, then compound 18-56 (Fig. S9) were chosen and ordered from the four companies mentioned above.
In order to screen the purchased compounds for αS binding, 100 nM solutions of each compound (1-56) were incubated for 1 hour at 37 °C with 100 nM αS fibrils and [3H]Tg-190b (6 nM) or [3H]BF2846 (3 nM) in 50 mM Tris-HCl, pH 7.4. Total binding was measured in the absence of competitor and nonspecific binding was determined in reactions containing unlabeled Tg-190b (1 µM) or BF2846 (0.5 µM). After incubation, bound and free radioligand were […]
scintillation cocktail (MicroScint-20, PerkinElmer; Waltham, MA, USA) and counted after 12 h of incubation on a MicroBeta System (PerkinElmer). All data points were acquired in triplicate.
Percentage of bound radioligand relative to total binding was plotted and data was analyzed by One-Way ANOVA, comparing the mean of each data set to the mean of total binding. […]
are shown in Fig. 2 in the main text, and Fig. S8 and S10.

[6] = target: T2, αS fibrils, Site 2 ([^3H]Tg-190b); test: Competition binding assay with Site 2 radioligand [^3H]Tg-190b on αS fibrils; conditions: αS fibrils 100 nM, [^3H]Tg-190b 6 nM, 1 h 37 °C; 95% confidence intervals in parentheses in Table 1 (n = 3)
Method: as §1, §2, §3, §4, §5, §6, §7, §8, §9, §10

Compound: C#CCCC1(CCOc2ccc(OCC(=O)Nc3cc(-c4ccc(I)cc4)no3)cc2)N=N1 [ClX2]
- Binding by crosslinking and fluorescent azide labeling in mouse brain lysate [1]: binding to αS fibrils, but also to many other proteins in mouse brain lysate
- Crosslinked site / peptide fragment on αS fibrils (αS fibrils [2]): residues 22-34; also recorded: Site 2

Compound: Cc1ccc(OCC(=O)Nc2cc(-c3ccc(F)cc3)no2)cc1C [Compound 6]
- IC50 [3]: 109 nM
- Effect on rate of αS aggregation (αS aggregation): No significant effect; also recorded: did not show any significant effect
- Effect on stability of αS fibrils (αS fibrils [4]): no apparent effect; also recorded: did not show any significant effect
- Binding in Site 2 radioligand competition screen (in words) [5]: high affinity
- IC50 [6]: 9.49 nM

Compound: CC(Cc1ccc(O)c(O)c1)C(C)Cc1ccc(O)c(O)c1 (stereo not drawn) [NDGA, nordihydroguaiaretic acid, reference compound]
- Effect on stability of αS fibrils (αS fibrils [4]): disrupted fibril stability

Compound: O=C(O[C@@H]1Cc2c(O)cc(O)cc2O[C@@H]1c1cc(O)c(O)c(O)c1)c1cc(O)c(O)c(O)c1 [EGCG, epigallocatechin gallate, reference compound]
- Effect on stability of αS fibrils (αS fibrils [4]): disrupted fibril stability
